Structures are written as SMILES. Where only a bound is given, the exact number is not on record here.

Chain of IDH1 R132H (O75874 whole entry R132H): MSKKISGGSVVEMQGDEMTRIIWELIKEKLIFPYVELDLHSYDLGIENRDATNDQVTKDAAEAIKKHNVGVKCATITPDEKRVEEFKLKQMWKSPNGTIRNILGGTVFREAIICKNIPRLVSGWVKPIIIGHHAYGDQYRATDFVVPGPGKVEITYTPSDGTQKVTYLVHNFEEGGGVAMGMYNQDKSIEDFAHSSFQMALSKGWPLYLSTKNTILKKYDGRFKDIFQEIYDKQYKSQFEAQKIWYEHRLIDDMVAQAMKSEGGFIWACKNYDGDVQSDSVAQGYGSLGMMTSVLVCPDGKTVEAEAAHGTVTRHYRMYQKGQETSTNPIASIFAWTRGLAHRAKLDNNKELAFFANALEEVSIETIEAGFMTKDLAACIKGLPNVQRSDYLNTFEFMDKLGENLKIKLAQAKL

The first assay concerns the target IDH1 R132H (Homo sapiens, UniProt O75874, R132H). Kind of assay: Assay for IDH1 R132H inhibitors (NADPH/aKG, resazurin detection). Format: biochemical. Conditions: Table 3; enzyme assay, 50 minutes at room temperature; read-out: IC50 (IDH1 R132H Inhibition). The method, boiled down:
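Read-out is resorufin fluorescence (Ex544/Em590) 5 min after adding a 30 μM resazurin detection mix. Before that, mutant enzyme (0.2 μg/ml in its mix) ran 50 min at room temperature with compound, 8 uM NADPH and 2 mM aKG (mix levels) in Tris pH 7.5 with NaCl, MgCl2, BSA.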
As a reminder, the IC50 is the point on the concentration scale where inhibition reaches its midpoint. `COCCC(=O)N1CCN(c2nc(C3CC3)c(-c3cccc(OC)c3)cc2C#N)C[C@H]1C` [Compound 236, (R)-6-cyclopropyl-5-(3-methoxyphenyl)-2-(4-(3-methoxypropanoyl)-3-methylpiperazin-1-yl)nicotinonitrile]: the IC50 was ≤ 1 µM. On the same count and under the same terms, the result for `CC(C)c1cc(-c2ccccc2O)c(C#N)c(N2CCN(C(=O)c3ccoc3)[C@H](C)C2)n1` [Compound 157, (R)-2-(4-(furan-3-carbonyl)-3-methylpiperazin-1-yl)-4-(2-hydroxyphenyl)-6-isopropylnicotinonitrile] reads 5 to 15 µM.

Regarding `COCCC(=O)N1CCN(c2nc(C(C)C)c(-c3ccc(OC)c(OC)c3)cc2C#N)C[C@H]1C` [Compound 223, (R)-5-(3,4-dimethoxyphenyl)-6-isopropyl-2-(4-(3-methoxypropanoyl)-3-methylpiperazin-1-yl)nicotinonitr-ile], the IC50 is ≤ 1 µM. On the same count and under the same terms, the result for `COCCC(=O)N1CCN(c2nc(C3CC3)c(-c3ccc4ccccc4c3)c(C)c2C#N)C[C@H]1C` [Compound 259, (R)-6-cyclopropyl-2-(4-(3-methoxypropanoyl)-3-methylpiperazin-1-yl)-4-methyl-5-(naphthalen-2-yl)nicotinonitrile] reads ≤ 1 µM; that for `COCCC(=O)N1CCN(c2nc(C(C)C)c(-c3ccc(F)cc3)cc2C#N)C[C@H]1C` [Compound 207, (R)-5-(4-fluorophenyl)-6-isopropyl-2-(4-(3-methoxypropanoyl)-3-methylpiperazin-1-yl)nicotinonitrile], ≤ 1 µM. Regarding `COCCC(=O)N1CCN(c2nc(C3CC3)c(-c3cccc(F)c3)cc2C#N)C[C@H]1C` [Compound 229, (R)-6-cyclopropyl-5-(3-fluorophenyl)-2-(4-(3-methoxypropanoyl)-3-methylpiperazin-1-yl)nicotinonitrile], the IC50 was ≤ 1 µM. Same read-out and setting: with `COCCC(=O)N1CCN(c2nc(C3CC3)c(-c3ccc(F)cc3F)c(C)c2C#N)C[C@H]1C` [Compound 256, 6-cyclopropyl-5-(2,4-difluorophenyl)-2-((R)-4-(3-methoxypropanoyl)-3-methylpiperazin-1-yl)-4-methyl-nicotinonitrile] the figure was ≤ 1 µM. On the same count and under the same terms, the result for `COCCC(=O)N1CCN(c2nc(C3CC3)c(-c3ccsc3)c(C)c2C#N)C[C@H]1C` [Compound 262, (R)-6-cyclopropyl-2-(4-(3-methoxypropanoyl)-3-methylpiperazin-1-yl)-4-methyl-5-(thiophen-3-yl)nicotinonitrile] reads ≤ 1 µM; that for `N#Cc1cc(-c2ccccc2)c(-c2ccccc2)nc1N1CCN(C(=O)Cc2ccccc2)CC1` [Compound 123, 5,6-diphenyl-2-(4-(2-phenylacetyl)piperazin-1-yl)nicotinonitrile], 5 to 15 µM. Same read-out and setting: the result for `COCCC(=O)N1CCN(c2nc(C(C)C)c(-c3cccc(OC(F)(F)F)c3)cc2C#N)C[C@H]1C` [Compound 230, (R)-6-isopropyl-2-(4-(3-methoxypropanoyl)-3-methylpiperazin-1-yl)-5-(3-(trifluoromethoxy)phenyl)nicotinonitrile] reads 1 to 5 µM. `COCCC(=O)N1CCN(c2nc(C(C)C)c(-c3cccc(C)c3)cc2C#N)C[C@H]1C` [Compound 193, (R)-6-isopropyl-2-(4-(3-methoxypropanoyl)-3-methylpiperazin-1-yl)-5-m-tolylnicotinonitrile]: the IC50 was 1 to 5 µM.

Consider `CC(C)c1cc(-c2ccccc2)c(C#N)c(N2CCN(C(=O)c3ccoc3)C(C)C2)n1` (stereo not shown) [Compound 110, 2-(4-(furan-3-carbonyl)-3-methylpiperazin-1-yl)-6-isopropyl-4-phenylnicotinonitrile], for which the IC50 lay within 1 to 5 µM. Same read-out and setting: the result for `COCCC(=O)N1CCN(c2nc(C(C)C)c(-c3cccc(Cl)c3)cc2C#N)C[C@H]1C` [Compound 218, (R)-5-(3-chlorophenyl)-6-isopropyl-2-(4-(3-methoxypropanoyl)-3-methylpiperazin-1-yl)nicotinonitrile] reads 1 to 5 µM; that for `COc1ccccc1-c1cc(C(C)C)nc(N2CCN(C(=O)c3ccoc3)CC2)c1C#N` [Compound 113, 2-(4-(furan-3-carbonyl)piperazin-1-yl)-6-isopropyl-4-(2-methoxyphenyl)nicotinonitrile], 5 to 15 µM; that for `CC(C)c1cc(-c2ccccc2)c(C#N)c(N2CCN(C(=O)c3ccoc3)[C@H](C)C2)n1` [Compound 130, (R)-2-(4-(furan-3-carbonyl)-3-methylpiperazin-1-yl)-6-isopropyl-4-phenylnicotinonitrile], 1 to 5 µM. Regarding `CC(C)c1nc(N2CCN(C(=O)c3ccoc3)CC2)c(C#N)cc1-c1ccccc1` [Compound 124, 2-(4-(furan-3-carbonyl)piperazin-1-yl)-6-isopropyl-5-phenylnicotinonitrile], the half-maximal inhibitory concentration (IC50) lay within 5 to 15 µM.

Still in this assay, the particulars now being: enzyme assay of Example 12; read-out: IDH1R132H IC50.
In the case of `CCC(=O)Nc1cccc(-c2cc(C#N)c(N3CCN(C(=O)C4CC4)[C@H](C4CC4)C3)nc2C2CC2)c1` [Compound 450, (R)—N-(3-(5-cyano-6-(4-(cyclopropanecarbonyl)-3-cyclopropylpiperazin-1-yl)-2-cyclopropylpyridin-3-yl)phenyl)propionamide], the IC50 lay within 0.5 to 1 µM. Same read-out and setting: with `COCCC(=O)N1CCN(c2nc(C3CC3)c(-c3ccc4cn[nH]c4c3)cc2C#N)C[C@H]1C` [Compound 385, (R)-6-cyclopropyl-5-(1H-indazol-6-yl)-2-(4-(3-methoxypropanoyl)-3-methylpiperazin-1-yl)nicotinonitrile] the figure was 0.5 to 1 µM; with `N#Cc1cc(-c2cccc3cnccc23)c(C2CC2)nc1N1CCN(C(=O)C2CC2)C(C(F)(F)F)C1` (stereo not shown) [Compound 397, 2-(4-(cyclopropanecarbonyl)-3-(trifluoromethyl)piperazin-1-yl)-6-cyclopropyl-5-(isoquinolin-5-yl)nicotinonitrile], < 0.5 µM; with `N#Cc1cc(-c2cccc3cnccc23)c(C2CC2)nc1N1CCN(C(=O)CCC=O)[C@H](C2CC2)C1` [Compound 519, (R)-6-cyclopropyl-2-(3-cyclopropyl-4-(4-oxobutanoyl)piperazin-1-yl)-5-(isoquinolin-5-yl)nicotinonitrile], 0.5 to 1 µM.

As to `N#Cc1cc(-c2cccc3cnccc23)c(C2CC2)nc1N1CCN(C(=O)C2CC2)C(CC(F)(F)F)C1` (stereo not shown) [Compound 423, 2-(4-(cyclopropanecarbonyl)-3-(2,2,2-trifluoroethyl)piperazin-1-yl)-6-cyclopropyl-5-(isoquinolin-5-yl)nicotinonitrile], the half-maximal inhibitory concentration (IC50) lay within 0.5 to 1 µM.

As to `COCCC(=O)N1CCN(c2nc(C3CC3)c(N3CCN(C(C)=O)CC3)cc2C#N)C[C@H]1C` [Compound 368, (R)-5-(4-acetylpiperazin-1-yl)-6-cyclopropyl-2-(4-(3-methoxypropanoyl)-3-methylpiperazin-1-yl)nicotinonitrile], the IC50 was 0.5 to 1 µM. On the same count and under the same terms, with `N#Cc1cncc(-c2cc(C#N)c(N3CCN(C(=O)C4CC4)[C@H](C4CC4)C3)nc2C2CC2)c1` [Compound 494, (R)-6-(4-(cyclopropanecarbonyl)-3-cyclopropylpiperazin-1-yl)-2-cyclopropyl-[3,3′-bipyridine]-5,5′-dicarbonitrile] the figure was < 0.5 µM; with `COC(=O)N1CCN(c2nc(C3CC3)c(-c3cccc4cnccc34)cc2C#N)C[C@H]1C1CC1` [Compound 489, (R)-methyl 4-(3-cyano-6-cyclopropyl-5-(isoquinolin-5-yl)pyridin-2-yl)-2-cyclopropylpiperazine-1 carboxylate], 0.5 to 1 µM; with `C=Cc1cnc2c(-c3cc(C#N)c(N4CCN(C(=O)/C=C/CCO)[C@H](C(C)C)C4)nc3C3CC3)cccc2n1` [Compound 790, (R)-6-cyclopropyl-2-(4-(5-hydroxypent-2-enoyl)-3-isopropylpiperazin-1-yl)-5-(2-vinylquinoxalin-5-yl)nicotinonitrile], < 0.5 µM. Same read-out and setting: the result for `COCCC(=O)N1CCN(c2nc(C3CC3)c(-c3cccc(NC(=O)/C=C/CN(C)C)c3)cc2C#N)C[C@H]1C` [Compound 441, (R,E)-N-(3-(5-cyano-2-cyclopropyl-6-(4-(3-methoxypropanoyl)-3-methylpiperazin-1-yl)pyridin-3-yl)phenyl)-4-(dimethylamino)but-2-enamide] reads 0.5 to 1 µM. Still for that read-out and setting: with `N#Cc1cc(-c2ccc3ncsc3c2)c(C2CC2)nc1N1CCN(C(=O)C2CC2)[C@H](C2CC2)C1` [Compound 487, (R)-5-(benzo[d]thiazol-6-yl)-2-(4-(cyclopropanecarbonyl)-3-cyclopropylpiperazin-1-yl)-6-cyclopropylnicotinonitrile] the figure was < 0.5 µM; with `CN(C)c1nccc(-c2cc(C#N)c(N3CCN(C(=O)C4CC4)[C@H](C4CC4)C3)nc2C2CC2)n1` [Compound 506, (R)-2-(4-(cyclopropanecarbonyl)-3-cyclopropylpiperazin-1-yl)-6-cyclopropyl-5-(2-(dimethylamino)pyrimidin-4-yl)nicotinonitrile], 0.5 to 1 µM; with `C[C@@H]1CN(c2nc(C3CC3)c(-c3ccc(C#N)nc3)cc2C#N)CCN1C(=O)C1CC1` [Compound 583, (R)-6-(4-(cyclopropanecarbonyl)-3-methylpiperazin-1-yl)-2-cyclopropyl-3,3′-bipyridine-5,6′-dicarbonitrile], 0.5 to 1 µM. With `N#Cc1cc(-c2cncc(-c3nnn[nH]3)c2)c(C2CC2)nc1N1CCN(C(=O)C2CC2)[C@H](C2CC2)C1` [Compound 554, (R)-6-(4-(cyclopropanecarbonyl)-3-cyclopropylpiperazin-1-yl)-2-cyclopropyl-5′-(1H-tetrazol-5-yl)-[3,3′-bipyridine]-5-carbonitrile], the IC50 is < 0.5 µM.

`COCCC(=O)N1CCN(c2nc(C3CC3)c(Nc3ccc(F)cc3)cc2C#N)C[C@H]1C` [Compound 355, (R)-6-cyclopropyl-5-((4-fluorophenyl)amino)-2-(4-(3-methoxypropanoyl)-3-methylpiperazin-1-yl)nicotinonitrile]: the IC50 lay in the range of 0.5 to 1 µM.

The record behind these values is patent publication US9856279B2 (AGIOS PHARMACEUTICALS, INC, priority 2011, dated 2018).
